The inhibition is the percentage by which the read-out fell short of the control. As a reminder, the IC50 is the concentration that gives 50% inhibition.

Data on 4 molecules can be found in patent publication US20240262812A1, “N-SUBSTITUTED PHENYLSULFONAMIDE COMPOUND AND USE THEREOF” (Shanghai Leado Pharmatech Co., Ltd., priority 2021, published 2024).

The target in one experiment is T1, chemokine receptor CCR9 (Homo sapiens, UniProt P51686).
T1 construct: expressed in transfected cells
T1 sequence (P51686 1-369): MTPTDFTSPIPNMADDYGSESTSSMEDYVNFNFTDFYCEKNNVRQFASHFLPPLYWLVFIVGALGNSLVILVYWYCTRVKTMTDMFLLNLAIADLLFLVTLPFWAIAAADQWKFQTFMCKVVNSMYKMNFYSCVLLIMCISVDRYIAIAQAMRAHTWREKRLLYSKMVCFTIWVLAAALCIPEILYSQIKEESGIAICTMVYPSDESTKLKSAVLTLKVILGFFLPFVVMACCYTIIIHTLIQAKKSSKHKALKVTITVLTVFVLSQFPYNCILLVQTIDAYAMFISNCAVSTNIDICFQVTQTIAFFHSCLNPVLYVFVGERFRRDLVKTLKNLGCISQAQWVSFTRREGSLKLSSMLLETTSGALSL
Briefly: CCR9 antagonistic activity, calcium flow (Fluo-4, FlexStation), CCL25 agonist. It is filed as cell-based. The following applies: antagonistic mode, CCL25 150 nM; for inhibition at 100 µM: read-out: Inhibition rate (%) (100 μM). From the text:
2.1 Main reagents: DMEM culture medium (GIBCO); dimethyl sulfoxide (Sigma); FLUO-4, AM (Invitrogen) 2.2 Main instrument: Flexstation-3 (Molecular Devices) The test concentration gradient of the compound and replicates were set according to the requirement of testing ICSO. All test substances with 8 concentrations were set, with 3 replicates for each concentration. By establishing a cell line that cotransformed the receptor and G16, the receptor being activated can induce the activation of Gα16 protein, thereby activating phospholipase C (PLC) to produce IP3 and DAG. IP3 can bind to the IP3 receptor on the intracellular endoplasmic reticulum and mitochondria, leading to the release of intracellular calcium. Therefore, measuring changes in intracellular calcium can serve as a method for detecting the activation status of target receptor. Fluo-4/AM is a calcium fluorescent probe indicator used to measure calcium ion, as a non-polar lipophilic compound, under the action of cell lipase after entering cells, the AM group dissociates and releases Fluo-4; since Fluo-4 is a polar molecule, it is not easy to pass through lipid bilayers, allowing it to remain in the cell for a long time. Ultimately, the level of G protein activation can be reflected by measuring the excited fluorescence intensity. […] Cells stably expressing the target receptor/Ga16 were planted on a 96 well plate and cultured overnight. 2. The culture solution was removed from the well planted cells, then 40 μL/well of freshly prepared dye was added. The mixture was incubated at a constant temperature in a 37° C. incubator for 40 minutes. 3. The drug to be tested was diluted with calcium buffer and mixed well. 4. The dye was absorbed and discarded. After washed once with freshly prepared calcium buffer, 50 μL of calcium buffer that dissolved the drug to be tested was added for replacement. 5. The FlexStation II instrument was used for detection. Starting from the 15th second, […] dissolved with known agonist was automatically added by the instrument, and finally the fluorescence value at 525 nm was readed. The following formula was used to calculate the cell response rate (% Response) for each sample under each concentration. […] IC50 value was calculated using GraphPad Prism.

In experiment [1] the test system is DNBS induced colitis in Wistar rats. Nature of the experiment: DNBS induced colitis model in Wistar rats. It is filed as in vivo, rat. Details: Degree of adhesion (score) / Degree of intestinal infarction (score) / Severity of ulcer (score) / Degree of intestinal wall thickening (score) / Macroscopic colon score: scale not given here. The following applies: oral once a day Day 0 to Day 6, compounds 10 mg/kg, osalazine sodium 300 mg/kg; for Degree of adhesion (score) / Degree of intestinal infarction (score) / Degree of intestinal wall thickening (score) / Severity of ulcer (score): mean score per Table 4; for Ulcer length / Ulcer width: mean. The text has this:
The therapeutic effect of compounds prepared in some examples of the present invention on 2,4-dinitrobenzenesulfonic acid (DNBS) induced ulcerative colitis in Wistar rats (corresponding to Crohn's disease) was investigated.
• Animal species and strains: Wistar rats • Administration record: No administration history • Gender and weight: Male, about 150 g • Breeding party/supplier: Shanghai SLAC Laboratory Animal Co., Ltd • Adaptation period: 5 days • Room: Regular Area Rooms • Indoor temperature: 20-26° C. • Indoor relative humidity: 40-70% • Lighting: Fluorescent lighting, 12-hour illumination (08:00-20:00) and 12-hour no illumination • Animal feeding: 2-4 rats per cage (same administration group) • Food: Unlimited access to feed (disinfected by irradiation, Jiangsu Xietong Pharmaceutical Bio-engineering Co., Ltd., China) • Water: Unlimited access to drinking water (treated with reverse osmosis and high-pressure sterilization)
A total of 80 Wistar rats were purchased from Shanghai SLAC Laboratory Animal Co., Ltd, of which 10 were used as backup animals to select animals with suitable weight range included in the groups, in order to control the fluctuation of disease severity caused by weight fluctuations.
BioBook software was used to screen 70 animals for random grouping based on animal weight to ensure that the weight values of each group of animals were similar to reduce bias.
3.1 DNBS powder was dissolved in 30% ethanol with a final concentration of 60 mg/mL.
3.2 Induction of colorectal inflammation: Before the experiment, rats were fasted for 40 hours and subcutaneously injected with 5% glucose saline during the fasting period. On the day 0 of the experiment, fasting rats were anesthetized by intraperitoneal injection of Zoletil and 5 mg/kg Xylazine. G2 group-G7 group, a hose was extended from the anus to the left curvature of the colorectum, and colorectal inflammation in rats was induced with DNBS enema. The normal control group (G1) was treated with 30% ethanol enema using the same method.
3.3. Dosage regimen: After DNBS induction in G1 and G2 groups of animals, solvent was administered. After DNBS induction in G3 group, 300 mg/kg of oxalazine sodium was administered. After DNBS induction in G4 to G7 groups, 10 mg/kg of the compounds of the present invention were administered respectively. Please refer to Table 3 for the administration time, specific administration dosage, and administration route. Starting from day 0 of modeling, the drugs were administered continuously for 7 days, and the animals were euthanized on day 6.
3.4 Testing indicators: After the experiment, all animals were euthanized by inhaling excessive CO2 and dislocation of cervical vertebra. After the abdominal cavity was cut open, the colorectum was taken out and the length of it was immediately measured. Then the colorectum was longitudinally cut open and rinsed clean. The weight of the colorectum and the area of the ulcer were recorded and the whole was photographed. At the same time, the damage to the rat colorectum was evaluated macroscopically according to Table 4.
The health status of animals and their comprehensive response to surgery and medication were observed every day.
The experimental data was calculated as mean±standard error. Statistical analysis was performed using Graphpad Prism, SPSS, or Sigmaplot software. The specific data is presented in the form of charts. P<0.05 is considered to have statistical differences.

As to `CNCc1ccc(NS(=O)(=O)c2ccsc2)c(-c2ccco2)c1` [IA-30], on chemokine receptor CCR9, the inhibition at 100 µM came to 3% and the IC50 was > 100 µM. Moreover, in experiment [1], the “Degree of adhesion (score)” value is given as 0.00, the “Degree of intestinal infarction (score)” value was determined as 0.00, the “Degree of intestinal wall thickening (score)” value is on record as 0.13 and the “Severity of ulcer (score)” value was determined as 0.80. For the same molecule, in experiment [1], the Ulcer length stood at 0.33 cm and the Ulcer width is listed as 0.19 cm.
`CNCc1ccc(-c2nccs2)c(NS(=O)(=O)c2ccccc2)c1` [IA-51, N-(5-((methylamino)methyl)-2-(thiazol-2-yl)phenyl)benzenesulfonamide]: at chemokine receptor CCR9, the inhibition at 100 µM was 3% and the IC50 is > 100 µM. Further, in experiment [1], the “Degree of adhesion (score)” value turned out to be 0.07, the “Degree of intestinal infarction (score)” value is recorded as 0.00, the “Degree of intestinal wall thickening (score)” value was 0.27 and the “Severity of ulcer (score)” value worked out at 0.60. In experiment [1], this molecule gave a Ulcer length of 0.31 cm and a Ulcer width of 0.20 cm.
Turning to `CNCc1ccc(-c2cc[nH]n2)c(NS(=O)(=O)c2ccccc2)c1` [IA-55, N-(5-((methylamino)methyl)-2-(1H-pyrazol-3-yl)phenyl)benzenesulfonamide], at chemokine receptor CCR9, the inhibition at 100 µM was determined as 8% and the IC50 was > 100 µM. Besides, in experiment [1], the “Degree of adhesion (score)” value was 0.10, the “Degree of intestinal infarction (score)” value is recorded as 0.10, the “Degree of intestinal wall thickening (score)” value was found to be 0.30 and the “Severity of ulcer (score)” value amounted to 1.20. In experiment [1], this molecule gave a Ulcer length of 0.60 cm and a Ulcer width of 0.40 cm.
`NCc1ccc(NS(=O)(=O)c2ccsc2)c(-c2ccco2)c1` [ID-5]: at chemokine receptor CCR9, the inhibition at 100 µM worked out at 8% and the IC50 is > 100 µM. Further, in experiment [1], the “Degree of adhesion (score)” value is listed as 0.00, the “Degree of intestinal infarction (score)” value stood at 0.00, the “Degree of intestinal wall thickening (score)” value stood at 0.10 and the “Severity of ulcer (score)” value was 0.70. In experiment [1], this molecule showed a Ulcer length of 0.34 cm and a Ulcer width of 0.12 cm.
